Literature values in US20250091981A1, “PROCESS FOR THE PURIFICATION OF 5-AMINOSALICYLIC ACID” (CHEMI S.P.A., priority 2022, published 2025).

Tests used:
[1] = value reported in the literature
[2] = established in the guidelines

Nc1ccc(O)c(C(=O)O)c1 [Example 5-ASA, 5-Amino salicylic acid]
isoelectric pH [1]: 3.7

CCN(CC)N=O [NDEA, N,N-diethyl-nitrosamine]
maximum daily intake limit [2]: 26.5 ng
